In PubChem BioAssay (NCI):
Several values for one entry are separate records, joined by “and”; a condition that tells them apart may be missing. Identical values can stand only once.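 Dose response: 5 concentrations. Exposure: 48 h. Format: 96-well plates. Endpoint: linear interpolation; highest concentration if not reached. At the GI50, growth is halved. TGI is the concentration that stops growth completely.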

Tests used:
Test in all cases: inhibition of tumour cell growth, NCI panel, 48 h
[1] = tested on: HT29 colon
[2] = tested on: SNB-19 CNS
[3] = tested on: RPMI-8226 leukemia
[4] = tested on: HOP-18 NSCLC
[5] = tested on: HOP-62 NSCLC
[6] = tested on: MALME-3M melanoma
[7] = tested on: SW-620 colon
[8] = tested on: RXF 393 renal
[9] = tested on: SN12C renal
[10] = tested on: SF-268 CNS
[11] = tested on: A549 NSCLC
[12] = tested on: UACC-62 melanoma
[13] = tested on: NCI-H23 lung
[14] = tested on: HCC-2998 colon
[15] = tested on: KM20L2 colon
[16] = tested on: 786-0 renal
[17] = tested on: OVCAR-5 ovarian
[18] = tested on: SNB-78 CNS
[19] = tested on: HL-60(TB) leukemia
[20] = tested on: DMS 114 small cell lung
[21] = tested on: SF-539 CNS
[22] = tested on: RXF-631 renal
[23] = tested on: MOLT-4 leukemia
[24] = tested on: HCT-116 colon
[25] = tested on: ACHN renal
[26] = tested on: SF-295 CNS
[27] = tested on: M19-MEL melanoma
[28] = tested on: HOP-92 NSCLC
[29] = tested on: HCT-15 colon
[30] = tested on: SK-MEL-5 melanoma
[31] = tested on: NCI-H226 lung
[32] = tested on: TK-10 renal
[33] = tested on: OVCAR-8 ovarian
[34] = tested on: DMS 273 small cell lung
[35] = tested on: IGROV1 ovarian
[36] = tested on: NCI-H460 lung
[37] = tested on: UO-31 renal
[38] = tested on: K-562 leukemia
[39] = tested on: CCRF-CEM leukemia
[40] = tested on: CAKI-1 renal
[41] = tested on: LOX IMVI melanoma
[42] = tested on: OVCAR-4 ovarian
[43] = tested on: LXFL 529 NSCLC
[44] = tested on: M14 melanoma
[45] = tested on: KM12 colon
[46] = tested on: SNB-75 CNS
[47] = tested on: OVCAR-3 ovarian
[48] = tested on: COLO 205 colon
[49] = tested on: SK-MEL-28 melanoma
[50] = tested on: EKVX NSCLC
[51] = tested on: A498 renal
[52] = tested on: UACC-257 melanoma
[53] = tested on: NCI-H522 lung
[54] = tested on: U251 CNS
[55] = tested on: SK-OV-3 ovarian
[56] = tested on: SK-MEL-2 melanoma
[57] = tested on: DLD-1 colon
[58] = tested on: XF 498 CNS
[59] = tested on: SR leukemia
[60] = tested on: HS 578T breast
[61] = tested on: MDA-MB-231 breast
[62] = tested on: MDA-N
[63] = tested on: PC-3 prostate
[64] = tested on: DU-145 prostate
[65] = tested on: NCI/ADR-RES ovarian

## COc1ccc(C[C@]23CCC(=O)N2CCc2cc(OC)c(O)cc23)cc1O
[1]
  TGI: > 100 µM
[2]
  TGI: > 100 µM
[3]
  TGI: > 100 µM
[4]
  TGI: > 100 µM
[5]
  TGI: > 100 µM
[6]
  TGI: > 100 µM
[7]
  TGI: > 100 µM
[8]
  TGI: > 100 µM
[9]
  TGI: > 100 µM
[10]
  TGI: > 100 µM
[11]
  TGI: > 100 µM
[12]
  TGI: > 100 µM
[13]
  TGI: > 100 µM
[14]
  TGI: > 100 µM
[15]
  TGI: > 100 µM
[16]
  TGI: > 100 µM
[17]
  TGI: > 100 µM
[18]
  TGI: > 100 µM
[19]
  TGI: > 100 µM
[20]
  TGI: > 100 µM
[21]
  TGI: > 100 µM
[22]
  TGI: > 100 µM
[23]
  TGI: > 100 µM
[24]
  TGI: > 100 µM
[25]
  TGI: > 100 µM
[26]
  TGI: > 100 µM
[27]
  TGI: > 100 µM
[28]
  TGI: > 100 µM
[29]
  TGI: > 100 µM
[30]
  TGI: > 100 µM
[31]
  TGI: > 100 µM
[32]
  TGI: > 100 µM
[33]
  TGI: 78.6 µM
[34]
  TGI: > 100 µM
[35]
  TGI: > 100 µM
[36]
  TGI: > 100 µM
[37]
  TGI: > 100 µM
[38]
  TGI: > 100 µM
[39]
  TGI: > 100 µM
[40]
  TGI: > 100 µM
[41]
  TGI: > 100 µM
[42]
  TGI: > 100 µM
[43]
  TGI: > 100 µM
[44]
  TGI: > 100 µM
[45]
  TGI: > 100 µM
[46]
  TGI: > 100 µM
[47]
  TGI: > 100 µM
[48]
  TGI: > 100 µM
[49]
  TGI: > 100 µM
[50]
  TGI: > 100 µM
[51]
  TGI: > 100 µM
[52]
  TGI: > 100 µM

## O=[N+]([O-])c1cccc(C2=NN(c3ccccc3)C3c4ccccc4OCC23)c1 (stereo not drawn)
[1]
  TGI: > 100 µM
[2]
  TGI: > 100 µM
[3]
  TGI: > 100 µM
[4]
  TGI: > 100 µM
[5]
  TGI: > 100 µM
[6]
  TGI: > 100 µM
[7]
  TGI: > 100 µM
[8]
  TGI: > 100 µM
[53]
  TGI: > 100 µM
[10]
  TGI: > 100 µM
[11]
  TGI: > 100 µM
[54]
  TGI: > 100 µM
[13]
  TGI: > 100 µM
[55]
  TGI: > 100 µM
[14]
  TGI: > 100 µM
[15]
  TGI: > 100 µM
[16]
  TGI: > 100 µM
[17]
  TGI: > 100 µM
[18]
  TGI: > 100 µM
[19]
  TGI: > 100 µM
[20]
  TGI: > 100 µM
[21]
  TGI: > 100 µM
[22]
  TGI: > 100 µM
[23]
  TGI: > 100 µM
[24]
  TGI: > 100 µM
[25]
  TGI: > 100 µM
[26]
  TGI: > 100 µM
[56]
  TGI: > 100 µM
[27]
  TGI: > 100 µM
[28]
  TGI: > 100 µM
[57]
  TGI: > 100 µM
[32]
  TGI: > 100 µM
[33]
  TGI: > 100 µM
[34]
  TGI: > 100 µM
[35]
  TGI: > 100 µM
[36]
  TGI: > 100 µM
[37]
  TGI: > 100 µM
[58]
  TGI: > 100 µM
[38]
  TGI: > 100 µM
[39]
  TGI: > 100 µM
[41]
  TGI: > 100 µM
[43]
  TGI: > 100 µM
[45]
  TGI: > 100 µM
[46]
  TGI: > 100 µM
[47]
  TGI: > 100 µM
[48]
  TGI: > 100 µM
[49]
  TGI: > 100 µM
[50]
  TGI: > 100 µM
[51]
  TGI: > 100 µM
[52]
  TGI: > 100 µM

## Cc1ccc(/C=N/NS(=O)(=O)c2ccccc2)cc1C
[1]
  TGI: > 100 µM
[59]
  TGI: > 100 µM
[3]
  TGI: > 100 µM
[4]
  TGI: > 100 µM
[5]
  TGI: > 100 µM
[6]
  TGI: > 100 µM
[7]
  TGI: > 100 µM
[8]
  TGI: > 100 µM
[9]
  TGI: > 100 µM
[10]
  TGI: > 100 µM
[11]
  TGI: > 100 µM
[54]
  TGI: > 100 µM
[12]
  TGI: > 100 µM
[13]
  TGI: > 100 µM
[55]
  TGI: > 100 µM
[14]
  TGI: > 100 µM
[15]
  TGI: > 100 µM
[16]
  TGI: > 100 µM
[17]
  TGI: > 100 µM
[18]
  TGI: > 100 µM
[19]
  TGI: > 100 µM
[20]
  TGI: > 100 µM
[21]
  TGI: > 100 µM
[23]
  TGI: > 100 µM
[24]
  TGI: > 100 µM
[25]
  TGI: > 100 µM
[26]
  TGI: > 100 µM
[56]
  TGI: > 100 µM
[27]
  TGI: > 100 µM
[28]
  TGI: > 100 µM
[29]
  TGI: > 100 µM
[57]
  TGI: > 100 µM
[30]
  TGI: > 100 µM
[31]
  TGI: > 100 µM
[32]
  TGI: > 100 µM
[33]
  TGI: > 100 µM
[34]
  TGI: > 100 µM
[35]
  TGI: > 100 µM
[36]
  TGI: > 100 µM
[37]
  TGI: > 100 µM
[58]
  TGI: > 100 µM
[38]
  TGI: > 100 µM
[39]
  TGI: > 100 µM
[40]
  TGI: > 100 µM
[41]
  TGI: > 100 µM
[42]
  TGI: > 100 µM
[43]
  TGI: > 100 µM
[44]
  TGI: > 100 µM
[45]
  TGI: > 100 µM
[46]
  TGI: > 100 µM
[47]
  TGI: > 100 µM
[48]
  TGI: > 100 µM
[49]
  TGI: > 100 µM
[50]
  TGI: > 100 µM
[51]
  TGI: > 100 µM
[52]
  TGI: > 100 µM

## CC[C@@]1(O)C[C@H](OC2CC(N(C)C)C(OC3CC(O)C(OC4CCC(=O)C(C)O4)C(C)O3)C(C)O2)c2c(cc3c(c2O)C(=O)c2c(O)cccc2C3=O)C1C(=O)OC (stereo partly drawn)
[1]
  TGI: 1.42 µM
[59]
  GI50: 0.00493 µM
  TGI: 1.23 µM
[4]
  TGI: 1.85 µM
[5]
  TGI: 1.58 µM
[60]
  TGI: 0.618 µM
[6]
  TGI: 0.0948 µM and 0.569 µM
[8]
  TGI: 0.157 µM
[61]
  TGI: 0.058 µM
[54]
  TGI: 2.72 µM and 9.24 µM
[12]
  TGI: 0.26 µM and 0.527 µM
[13]
  TGI: 0.635 µM
[55]
  TGI: 6 µM and 12.7 µM
[14]
  TGI: 0.598 µM and 1.88 µM
[15]
  TGI: 4.64 µM
[17]
  TGI: 3.11 µM and 1.56 µM
[62]
  TGI: 0.149 µM
[20]
  TGI: 0.474 µM
[23]
  GI50: 0.00383 µM
  TGI: 0.655 µM
[25]
  TGI: 2.15 µM
[26]
  TGI: 1.1 µM and 1.89 µM
[56]
  TGI: 0.0581 µM and 0.425 µM
[63]
  TGI: 1.47 µM
[27]
  TGI: 0.799 µM
[28]
  TGI: 0.0897 µM
[29]
  TGI: 1.2 µM and 3.13 µM
[57]
  TGI: 5.46 µM
[64]
  TGI: 0.446 µM
[30]
  TGI: 0.189 µM and 0.478 µM
[65]
  TGI: 0.673 µM
[33]
  TGI: 0.679 µM and 4.49 µM
[36]
  TGI: 1.42 µM
[58]
  GI50: 0.0025 µM
  TGI: 0.294 µM
[39]
  TGI: 0.116 µM and 1.02 µM
[40]
  TGI: 4.09 µM
[42]
  TGI: 0.117 µM
[43]
  TGI: 1.68 µM
[44]
  TGI: 0.237 µM and 0.769 µM
[47]
  TGI: 0.23 µM and 1.96 µM
[49]
  TGI: 0.215 µM and 0.806 µM
[50]
  TGI: 3.02 µM and 1.35 µM
[51]
  TGI: 0.213 µM
[52]
  TGI: 0.202 µM and 0.993 µM
